In the NIST ThermoML archive (doi:10.1016/j.tca.2014.03.033):

Experiment: molar heat capacity at constant pressure
Conditions: 101.33 kPa, Crystal, Vacuum adiabatic calorimetry

O=P([O-])([O-])[O-].O=P([O-])([O-])[O-].O=P([O-])([O-])[O-].[K+].[Th+4].[Th+4] [potassium dithorium trisphosphate]
Conditions | molar heat capacity at constant pressure [J/K/mol]
4 K | 0.316
5 K | 0.395
6 K | 0.4889
7 K | 0.5352
8 K | 0.4432
9 K | 0.3222
10 K | 0.3252
15 K | 2.606
20 K | 6.715
25 K | 12.67
30 K | 19.97
35 K | 28.47
40 K | 37.38
45 K | 46.43
50 K | 56.01
60 K | 73.35
70 K | 91.89
80 K | 109.4
90 K | 125.4
100 K | 140
110 K | 153.5
120 K | 166.2
130 K | 178
140 K | 189.2
150 K | 199.8
160 K | 209.9
170 K | 219.6
180 K | 229
190 K | 238.2
200 K | 247.3
210 K | 256
220 K | 264.2
230 K | 271.8
240 K | 278.6
250 K | 284.7
260 K | 290.3
270 K | 295.7
273.15 K | 297.5
280 K | 301.3
290 K | 307.4
